Test results taken from paper PMC2783186 (Journal of medicinal chemistry, 2009).

Key:
[1] = target: PLAP (Homo sapiens, UniProt P05187); test: PLAP luminescent assay; format: biochemical
[2] = tested on: Cytochrome P450 2C19 (CYP2C19); conditions: ref PubChem database; cited from earlier work
[3] = PAMPA permeability; format: in vitro ADME
[4] = target: T1, PHOSPHO1 (Homo sapiens, UniProt Q8TCT1); test: PHOSPHO1 counterscreen; format: biochemical; conditions: read-out: Inhibition of PHOSPHO1
T1 sequence (Q8TCT1 1-267): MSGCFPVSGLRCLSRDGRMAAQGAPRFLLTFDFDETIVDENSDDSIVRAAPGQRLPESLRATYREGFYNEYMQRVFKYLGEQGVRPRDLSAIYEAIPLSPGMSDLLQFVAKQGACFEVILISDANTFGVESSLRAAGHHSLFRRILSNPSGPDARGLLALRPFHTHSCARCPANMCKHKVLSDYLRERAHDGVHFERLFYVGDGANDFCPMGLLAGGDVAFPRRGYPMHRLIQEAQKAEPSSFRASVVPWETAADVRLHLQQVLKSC

[5] = target: T2, TNAP (Homo sapiens, UniProt P05186); test: TNAP luminescent assay; format: biochemical; conditions: relative to lead compound 1
T2 sequence (P05186 18-501 limits assumed): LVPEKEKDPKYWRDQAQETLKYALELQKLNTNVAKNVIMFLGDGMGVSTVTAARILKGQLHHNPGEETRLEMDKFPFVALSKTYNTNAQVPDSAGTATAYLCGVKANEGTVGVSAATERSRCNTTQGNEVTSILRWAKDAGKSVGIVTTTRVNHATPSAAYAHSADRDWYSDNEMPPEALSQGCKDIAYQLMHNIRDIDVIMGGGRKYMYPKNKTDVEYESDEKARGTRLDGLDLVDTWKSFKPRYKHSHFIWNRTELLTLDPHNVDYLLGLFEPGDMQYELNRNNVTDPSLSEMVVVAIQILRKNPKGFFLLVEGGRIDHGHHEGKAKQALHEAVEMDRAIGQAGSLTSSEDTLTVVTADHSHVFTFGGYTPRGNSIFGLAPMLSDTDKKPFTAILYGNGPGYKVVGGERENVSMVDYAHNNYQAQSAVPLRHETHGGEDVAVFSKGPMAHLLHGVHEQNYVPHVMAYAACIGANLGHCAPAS

[6] = target: T2, TNAP; conditions: cited from earlier work

Sequence of PLAP (P05187 23-506 limits assumed): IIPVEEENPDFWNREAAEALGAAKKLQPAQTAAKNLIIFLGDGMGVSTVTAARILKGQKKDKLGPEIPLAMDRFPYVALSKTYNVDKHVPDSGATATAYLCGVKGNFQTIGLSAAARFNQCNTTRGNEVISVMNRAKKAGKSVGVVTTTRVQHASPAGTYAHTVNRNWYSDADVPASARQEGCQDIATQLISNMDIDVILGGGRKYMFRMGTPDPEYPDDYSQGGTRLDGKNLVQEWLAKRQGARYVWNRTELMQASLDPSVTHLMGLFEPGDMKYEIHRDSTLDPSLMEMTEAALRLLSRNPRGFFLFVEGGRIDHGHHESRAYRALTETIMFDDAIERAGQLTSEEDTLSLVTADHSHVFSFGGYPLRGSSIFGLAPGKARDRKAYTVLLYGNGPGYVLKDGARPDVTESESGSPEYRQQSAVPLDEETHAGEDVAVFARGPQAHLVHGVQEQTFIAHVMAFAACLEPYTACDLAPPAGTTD

| Compound | PAMPA (% FLUX) [3] | TNAP inhibitory activity (in words) [5] | further results |
| --- | --- | --- | --- |
| COc1ccc(OC)c(S(=O)(=O)Nc2cnc3ccccc3c2)c1 [Compound 1, 2,5-Dimethoxy-N-(quinolin-3-yl)benzenesulfonamide] | 58 % FLUX | – | IC50 [1]: > 100 µM; Activity in Cytochrome P450 2C19 assay [2]: showed activity; inhibition at 10 µM [4]: < 7.4% |
| COc1ccc(OC)c(S(=O)(=O)Nc2ccc3ccccc3c2)c1 [Compound 12, 2,5-Dimethoxy-N-(naphthalen-2-yl)benzenesulfonamide] | – | loss of activity | – |
| COc1ccc(OC)c(S(=O)(=O)Nc2ccc3ncccc3c2)c1 [Compound 13, 2,5-Dimethoxy-N-(quinolin-6-yl)benzenesulfonamide] | – | loss of activity | – |
| COc1cccc(S(=O)(=O)Nc2cnc3ccccc3c2)c1 [Compound 15, 3-Methoxy-N-(quinolin-3-yl)benzenesulfonamide] | – | dramatic loss of activity | – |
| COc1ccc(OC)c(NS(=O)(=O)c2cnc3ccccc3c2)c1 [Compound 16, N-(2,5-Dimethoxyphenyl)quinoline-3-sulfonamide] | – | abolished the inhibitory activity | – |
| COc1ccc(OC)c(CNc2cnc3ccccc3c2)c1 [Compound 17] | – | abolished the inhibitory activity | – |
| COc1ccc(Br)cc1S(=O)(=O)Nc1cnc2ccccc2c1 [Compound 18, 5-Bromo-2-methoxy-N-(quinolin-3-yl)benzenesulfonamide] | 54 % FLUX | – | – |
| COc1ccc(C)cc1S(=O)(=O)Nc1cnc2ccccc2c1 [Compound 19, 2-Methoxy-5-methyl-N-(quinolin-3-yl)benzenesulfonamide] | 7 % FLUX | – | – |
| NC(N)=NCCCC[C@H](N)C(=O)O [L-homoarginine] | – | – | Mode of inhibition versus phosphate-donor substrate [6]: uncompetitive |
| c1ccc([C@H]2CN3CCSC3=N2)cc1 [levamisole] | – | – | Mode of inhibition versus phosphate-donor substrate [6]: uncompetitive |
